In PubChem BioAssay (NCI):
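Cells were grown in 96-well plates and exposed to each compound for 48 hours at five concentrations; endpoints were interpolated linearly between bracketing concentrations, or set to the highest concentration if not reached. The concentration for 50% growth inhibition is given as GI50. TGI: concentration producing complete growth inhibition.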

Legend:
Assay in all cases: DTP human tumour cell line panel, 48 h
BT-549 breast = tested on: BT-549 breast
UACC-257 melanoma = tested on: UACC-257 melanoma
LOX IMVI melanoma = tested on: LOX IMVI melanoma
UO-31 renal = tested on: UO-31 renal
SK-MEL-2 melanoma = tested on: SK-MEL-2 melanoma
SR leukemia = tested on: SR leukemia
HOP-92 NSCLC = tested on: HOP-92 NSCLC
T-47D breast = tested on: T-47D breast
HS 578T breast = tested on: HS 578T breast
SF-539 CNS = tested on: SF-539 CNS
SK-MEL-28 melanoma = tested on: SK-MEL-28 melanoma
MCF7 breast = tested on: MCF7 breast
ACHN renal = tested on: ACHN renal
NCI-H460 lung = tested on: NCI-H460 lung
SF-295 CNS = tested on: SF-295 CNS
SK-MEL-5 melanoma = tested on: SK-MEL-5 melanoma
MALME-3M melanoma = tested on: MALME-3M melanoma
OVCAR-4 ovarian = tested on: OVCAR-4 ovarian
HCC-2998 colon = tested on: HCC-2998 colon
MDA-MB-435 = tested on: MDA-MB-435
NCI/ADR-RES ovarian = tested on: NCI/ADR-RES ovarian
MDA-MB-231 breast = tested on: MDA-MB-231 breast
NCI-H226 lung = tested on: NCI-H226 lung
UACC-62 melanoma = tested on: UACC-62 melanoma
PC-3 prostate = tested on: PC-3 prostate
HT29 colon = tested on: HT29 colon
SNB-75 CNS = tested on: SNB-75 CNS
EKVX NSCLC = tested on: EKVX NSCLC
CCRF-CEM leukemia = tested on: CCRF-CEM leukemia
OVCAR-3 ovarian = tested on: OVCAR-3 ovarian
OVCAR-5 ovarian = tested on: OVCAR-5 ovarian
TK-10 renal = tested on: TK-10 renal
A498 renal = tested on: A498 renal
786-0 renal = tested on: 786-0 renal
M14 melanoma = tested on: M14 melanoma
U251 CNS = tested on: U251 CNS
HL-60(TB) leukemia = tested on: HL-60(TB) leukemia
K-562 leukemia = tested on: K-562 leukemia
A549 NSCLC = tested on: A549 NSCLC
RPMI-8226 leukemia = tested on: RPMI-8226 leukemia
HOP-62 NSCLC = tested on: HOP-62 NSCLC
RXF 393 renal = tested on: RXF 393 renal
DU-145 prostate = tested on: DU-145 prostate
IGROV1 ovarian = tested on: IGROV1 ovarian
SNB-19 CNS = tested on: SNB-19 CNS
SW-620 colon = tested on: SW-620 colon
COLO 205 colon = tested on: COLO 205 colon
HCT-116 colon = tested on: HCT-116 colon
SK-OV-3 ovarian = tested on: SK-OV-3 ovarian
CAKI-1 renal = tested on: CAKI-1 renal
MOLT-4 leukemia = tested on: MOLT-4 leukemia
SF-268 CNS = tested on: SF-268 CNS
SN12C renal = tested on: SN12C renal
KM12 colon = tested on: KM12 colon
HCT-15 colon = tested on: HCT-15 colon
OVCAR-8 ovarian = tested on: OVCAR-8 ovarian
NCI-H522 lung = tested on: NCI-H522 lung

NS(=O)(=O)c1cccc(Nc2nc(SCC(=O)c3ccc([N+](=O)[O-])cc3)nc3ccccc23)c1
GI50 (BT-549 breast): 11.3 µM
TGI (BT-549 breast): 51.5 µM
GI50 (UACC-257 melanoma): 30.1 µM
TGI (UACC-257 melanoma): > 100 µM
GI50 (LOX IMVI melanoma): 31.4 µM
TGI (LOX IMVI melanoma): > 100 µM
GI50 (UO-31 renal): 32.6 µM
TGI (UO-31 renal): > 100 µM
GI50 (SK-MEL-2 melanoma): 14.4 µM
TGI (SK-MEL-2 melanoma): 44 µM
GI50 (SR leukemia): 21.1 µM
TGI (SR leukemia): > 100 µM
GI50 (HOP-92 NSCLC): 14 µM
TGI (HOP-92 NSCLC): > 100 µM
GI50 (T-47D breast): 9.95 µM
TGI (T-47D breast): 65.4 µM
GI50 (HS 578T breast): 35.2 µM
TGI (HS 578T breast): > 100 µM
GI50 (SF-539 CNS): 31.3 µM
TGI (SF-539 CNS): > 100 µM
GI50 (SK-MEL-28 melanoma): 34.9 µM
TGI (SK-MEL-28 melanoma): > 100 µM
GI50 (MCF7 breast): 12.4 µM
TGI (MCF7 breast): > 100 µM
GI50 (ACHN renal): 30.6 µM
TGI (ACHN renal): > 100 µM
GI50 (NCI-H460 lung): 26.2 µM
TGI (NCI-H460 lung): > 100 µM
GI50 (SF-295 CNS): 38.3 µM
TGI (SF-295 CNS): > 100 µM
GI50 (SK-MEL-5 melanoma): 22.3 µM
TGI (SK-MEL-5 melanoma): 88.1 µM
GI50 (MALME-3M melanoma): 44.5 µM
TGI (MALME-3M melanoma): > 100 µM
GI50 (OVCAR-4 ovarian): 26.6 µM
TGI (OVCAR-4 ovarian): > 100 µM
GI50 (HCC-2998 colon): 31.7 µM
TGI (HCC-2998 colon): > 100 µM
GI50 (MDA-MB-435): 44.9 µM
TGI (MDA-MB-435): > 100 µM
GI50 (NCI/ADR-RES ovarian): > 100 µM
TGI (NCI/ADR-RES ovarian): > 100 µM
GI50 (MDA-MB-231 breast): > 100 µM
TGI (MDA-MB-231 breast): > 100 µM
GI50 (NCI-H226 lung): 21.2 µM
TGI (NCI-H226 lung): 70.8 µM
GI50 (UACC-62 melanoma): 16.3 µM
TGI (UACC-62 melanoma): 37.3 µM
GI50 (PC-3 prostate): 20.2 µM
TGI (PC-3 prostate): > 100 µM
GI50 (HT29 colon): 38.8 µM
TGI (HT29 colon): > 100 µM
GI50 (SNB-75 CNS): > 100 µM
TGI (SNB-75 CNS): > 100 µM
GI50 (EKVX NSCLC): 32.9 µM
TGI (EKVX NSCLC): > 100 µM
GI50 (CCRF-CEM leukemia): 20.3 µM
TGI (CCRF-CEM leukemia): > 100 µM
GI50 (OVCAR-3 ovarian): 19.6 µM
TGI (OVCAR-3 ovarian): 72.9 µM
GI50 (OVCAR-5 ovarian): > 100 µM
TGI (OVCAR-5 ovarian): > 100 µM
GI50 (TK-10 renal): 54.5 µM
TGI (TK-10 renal): > 100 µM
GI50 (A498 renal): 38.4 µM
TGI (A498 renal): > 100 µM
GI50 (786-0 renal): 48.5 µM
TGI (786-0 renal): > 100 µM
GI50 (M14 melanoma): 31.6 µM
TGI (M14 melanoma): > 100 µM
GI50 (U251 CNS): 58.2 µM
TGI (U251 CNS): > 100 µM
GI50 (HL-60(TB) leukemia): 22.2 µM
TGI (HL-60(TB) leukemia): 64.3 µM
GI50 (K-562 leukemia): 23.6 µM
TGI (K-562 leukemia): > 100 µM
GI50 (A549 NSCLC): 32 µM
TGI (A549 NSCLC): > 100 µM
GI50 (RPMI-8226 leukemia): 16.1 µM
TGI (RPMI-8226 leukemia): 83 µM
GI50 (HOP-62 NSCLC): 28.8 µM
TGI (HOP-62 NSCLC): > 100 µM
GI50 (RXF 393 renal): 23.2 µM
TGI (RXF 393 renal): > 100 µM
GI50 (DU-145 prostate): 28.7 µM
TGI (DU-145 prostate): > 100 µM
GI50 (IGROV1 ovarian): 24 µM
TGI (IGROV1 ovarian): > 100 µM
GI50 (SNB-19 CNS): > 100 µM
TGI (SNB-19 CNS): > 100 µM
GI50 (SW-620 colon): 64.2 µM
TGI (SW-620 colon): > 100 µM
GI50 (COLO 205 colon): 40.3 µM
TGI (COLO 205 colon): > 100 µM
GI50 (HCT-116 colon): 31.3 µM
TGI (HCT-116 colon): > 100 µM
GI50 (SK-OV-3 ovarian): 63.2 µM
TGI (SK-OV-3 ovarian): > 100 µM
GI50 (CAKI-1 renal): 32.1 µM
TGI (CAKI-1 renal): > 100 µM
GI50 (MOLT-4 leukemia): 12.9 µM
TGI (MOLT-4 leukemia): 45.1 µM
GI50 (SF-268 CNS): 43.7 µM
TGI (SF-268 CNS): > 100 µM
GI50 (SN12C renal): 40.9 µM
TGI (SN12C renal): > 100 µM
GI50 (KM12 colon): 37.6 µM
TGI (KM12 colon): > 100 µM
GI50 (HCT-15 colon): 38.7 µM
TGI (HCT-15 colon): > 100 µM
GI50 (OVCAR-8 ovarian): 25.3 µM
TGI (OVCAR-8 ovarian): > 100 µM
GI50 (NCI-H522 lung): 20.1 µM
TGI (NCI-H522 lung): 89.6 µM
